Measured values taken from patent publication US12692221B2 (priority 2024, dated 2026).
In brackets after ≈: the same amount, converted by molar mass.

What was measured:
H1 (h) = target: T1, H1 (h) (Homo sapiens, UniProt P35367); test: Radioligand binding H1 (h) (antagonist radioligand), [^3H]pyrilamine, HEK-293 cells
T1 construct: expressed in transfected cells; host or cells: HEK-293 cells
Method: (§1) Methods—Binding Assays: In vitro binding assays were performed using human recombinant receptors expressed in mammalian cell lines. Receptors were expressed in either HEK-293 or CHO cells depending on the target, and assay conditions (radioligand, concentration, nonspecific competitor, temperature, and incubation time) were optimized for each receptor. All assays were conducted in triplicate, and specific binding was quantified by scintillation counting as the detection method for each listed assay.
(§2) Specific binding was expressed as a percentage of control-specific binding, and percent inhibition was calculated using the formula in Ex. 8 above. Half-maximal inhibitory concentrations (IC50) were determined by non-linear regression analysis of the inhibition curves using the Hill equation (see Ex. 8). Inhibition constants (Ki) were calculated using the Cheng-Prusoff equation (see Ex. 8). KD values used in these calculations had been previously established for each receptor under the assay conditions (see Table 6). Data analysis was performed using software developed at Cerep and validated against SigmaPlot 4.0 for Windows.

V1a (h) = target: T2, V1a (h) (Homo sapiens, UniProt P37288); test: Radioligand binding V1a (h) (agonist radioligand), [^3H]AVP, CHO cells
T2 construct: expressed in transfected cells; host or cells: CHO cells
T2 sequence (P37288 whole entry): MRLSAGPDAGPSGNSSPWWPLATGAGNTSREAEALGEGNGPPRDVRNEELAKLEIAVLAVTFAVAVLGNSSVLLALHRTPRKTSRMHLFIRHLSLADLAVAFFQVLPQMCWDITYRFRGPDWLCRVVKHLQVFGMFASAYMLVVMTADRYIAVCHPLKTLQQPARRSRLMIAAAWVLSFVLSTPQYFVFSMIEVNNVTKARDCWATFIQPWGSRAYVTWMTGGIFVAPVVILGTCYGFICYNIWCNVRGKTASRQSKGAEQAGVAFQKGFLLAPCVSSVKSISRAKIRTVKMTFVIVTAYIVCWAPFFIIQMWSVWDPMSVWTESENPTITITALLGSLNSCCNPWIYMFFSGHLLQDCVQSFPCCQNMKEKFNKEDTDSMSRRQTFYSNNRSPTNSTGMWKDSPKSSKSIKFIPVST
Method: as §1, §2

kappa (KOP) (h) = target: T3, kappa (KOP) (h) (Homo sapiens, UniProt P41145); test: Radioligand binding kappa (KOP) (h) (agonist radioligand), [^3H]U69593, RBL cells; settings: kappa (h) (KOP) (agonist radiolig.)
T3 construct: expressed in transfected cells; host or cells: RBL cells
T3 sequence (P41145 whole entry): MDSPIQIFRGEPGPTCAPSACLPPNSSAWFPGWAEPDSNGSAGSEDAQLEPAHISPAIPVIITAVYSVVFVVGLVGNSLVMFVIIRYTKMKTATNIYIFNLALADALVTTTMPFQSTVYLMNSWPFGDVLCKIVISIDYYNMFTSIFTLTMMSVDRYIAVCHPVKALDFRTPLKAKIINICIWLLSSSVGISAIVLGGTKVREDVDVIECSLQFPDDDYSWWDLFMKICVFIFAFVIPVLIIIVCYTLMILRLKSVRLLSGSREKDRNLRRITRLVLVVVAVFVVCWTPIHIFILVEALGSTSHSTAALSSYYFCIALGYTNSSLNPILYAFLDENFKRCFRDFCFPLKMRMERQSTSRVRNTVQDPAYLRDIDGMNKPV

AR (h) = target: T4, AR (h) (Homo sapiens, UniProt P10275, T878A); test: Radioligand binding AR (h) (agonist radioligand), [^3H]methyltrienolone, LNCaP cells
T4 construct: human endog; endogenous in cells; host or cells: LNCaP cells
T4 sequence (P10275 1-920 T878A): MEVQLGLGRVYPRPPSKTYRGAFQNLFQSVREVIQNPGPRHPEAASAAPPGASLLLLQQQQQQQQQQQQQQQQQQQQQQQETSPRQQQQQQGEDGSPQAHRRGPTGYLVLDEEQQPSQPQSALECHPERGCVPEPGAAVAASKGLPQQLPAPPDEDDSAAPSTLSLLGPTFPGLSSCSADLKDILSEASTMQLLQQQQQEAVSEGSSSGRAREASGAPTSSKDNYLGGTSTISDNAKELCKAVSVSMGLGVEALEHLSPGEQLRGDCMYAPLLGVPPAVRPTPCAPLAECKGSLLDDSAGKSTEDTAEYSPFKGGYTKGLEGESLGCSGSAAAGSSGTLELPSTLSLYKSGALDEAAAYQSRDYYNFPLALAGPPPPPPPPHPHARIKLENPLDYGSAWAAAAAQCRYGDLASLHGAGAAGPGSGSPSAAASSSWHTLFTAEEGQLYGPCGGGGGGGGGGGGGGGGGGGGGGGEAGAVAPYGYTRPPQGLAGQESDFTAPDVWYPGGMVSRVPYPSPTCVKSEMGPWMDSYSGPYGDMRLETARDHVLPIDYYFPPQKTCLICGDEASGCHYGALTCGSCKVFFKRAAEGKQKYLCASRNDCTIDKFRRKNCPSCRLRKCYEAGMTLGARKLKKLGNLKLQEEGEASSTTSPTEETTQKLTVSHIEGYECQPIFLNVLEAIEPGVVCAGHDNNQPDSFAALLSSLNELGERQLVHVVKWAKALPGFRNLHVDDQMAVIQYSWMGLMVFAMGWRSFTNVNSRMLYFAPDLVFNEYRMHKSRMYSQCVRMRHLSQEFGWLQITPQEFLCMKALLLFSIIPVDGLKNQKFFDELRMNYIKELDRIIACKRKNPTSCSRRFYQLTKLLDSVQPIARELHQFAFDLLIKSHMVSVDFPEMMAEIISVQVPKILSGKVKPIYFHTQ

[1] = Aqueous solubility by sequential dilution in water, microscopic inspection; settings: for aqueous solubility relative to reference compound 2C-iBu: under the same conditions; for solubility: water, thermodynamic from solid
KV channel = type: binding, rat; settings: KV channel (antagonist radiolig.)
[2] = Photoabsorption 290-700 nm, molar extinction coefficient (photoliability); type: physicochemical; settings: wavelength of maximal absorption between 290 nm and 700 nm
alpha1A (h) = target: T5, alpha1A (h) (Homo sapiens, UniProt P35348); test: Radioligand binding alpha1A (h) (antagonist radioligand), [^3H]prazosin, CHO cells
T5 construct: expressed in transfected cells; host or cells: CHO cells
T5 sequence (P35348 1-466): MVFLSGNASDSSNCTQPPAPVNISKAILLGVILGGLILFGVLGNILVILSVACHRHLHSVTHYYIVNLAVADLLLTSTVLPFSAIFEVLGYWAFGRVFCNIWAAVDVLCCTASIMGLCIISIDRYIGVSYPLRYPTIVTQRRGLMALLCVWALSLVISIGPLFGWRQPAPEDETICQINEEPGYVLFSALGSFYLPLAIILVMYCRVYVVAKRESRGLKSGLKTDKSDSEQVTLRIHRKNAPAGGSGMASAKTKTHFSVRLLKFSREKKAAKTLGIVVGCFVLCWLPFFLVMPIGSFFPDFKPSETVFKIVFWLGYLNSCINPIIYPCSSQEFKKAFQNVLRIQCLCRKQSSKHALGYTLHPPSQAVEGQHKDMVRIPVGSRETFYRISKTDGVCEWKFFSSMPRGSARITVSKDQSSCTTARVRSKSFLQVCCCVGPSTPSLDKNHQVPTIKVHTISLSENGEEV
Method: as §1, §2

N neuronal α4β2 (h) = target: T6, N neuronal α4β2 (h) (Homo sapiens, UniProt P17787+P43681); test: Radioligand binding N neuronal α4β2 (h) (agonist radioligand), [^3H]cytisine, SH-SY5Y cells; settings: N neuronal alpha4beta2 (h) (agonist radioligand)
T6 construct: expressed in transfected cells; host or cells: SH-SY5Y cells
T6 sequence (P43681 29-627 limits assumed): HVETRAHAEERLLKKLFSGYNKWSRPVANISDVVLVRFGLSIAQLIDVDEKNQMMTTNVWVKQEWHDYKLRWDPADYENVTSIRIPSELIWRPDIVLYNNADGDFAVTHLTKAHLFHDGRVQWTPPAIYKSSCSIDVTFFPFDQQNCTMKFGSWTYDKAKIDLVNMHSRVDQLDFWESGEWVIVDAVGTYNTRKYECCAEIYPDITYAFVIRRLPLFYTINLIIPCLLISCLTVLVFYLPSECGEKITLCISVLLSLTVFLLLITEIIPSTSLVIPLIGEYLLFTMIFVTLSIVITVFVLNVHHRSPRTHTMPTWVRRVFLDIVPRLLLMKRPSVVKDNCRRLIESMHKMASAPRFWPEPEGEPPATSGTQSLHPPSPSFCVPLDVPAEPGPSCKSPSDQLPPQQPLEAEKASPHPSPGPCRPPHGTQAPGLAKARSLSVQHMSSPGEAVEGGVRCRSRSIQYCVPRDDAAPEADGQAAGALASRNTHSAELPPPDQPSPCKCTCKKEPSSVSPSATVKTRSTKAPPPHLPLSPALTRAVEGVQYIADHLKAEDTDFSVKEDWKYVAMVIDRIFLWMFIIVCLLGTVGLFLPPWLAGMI
T6 sequence (P17787 26-502): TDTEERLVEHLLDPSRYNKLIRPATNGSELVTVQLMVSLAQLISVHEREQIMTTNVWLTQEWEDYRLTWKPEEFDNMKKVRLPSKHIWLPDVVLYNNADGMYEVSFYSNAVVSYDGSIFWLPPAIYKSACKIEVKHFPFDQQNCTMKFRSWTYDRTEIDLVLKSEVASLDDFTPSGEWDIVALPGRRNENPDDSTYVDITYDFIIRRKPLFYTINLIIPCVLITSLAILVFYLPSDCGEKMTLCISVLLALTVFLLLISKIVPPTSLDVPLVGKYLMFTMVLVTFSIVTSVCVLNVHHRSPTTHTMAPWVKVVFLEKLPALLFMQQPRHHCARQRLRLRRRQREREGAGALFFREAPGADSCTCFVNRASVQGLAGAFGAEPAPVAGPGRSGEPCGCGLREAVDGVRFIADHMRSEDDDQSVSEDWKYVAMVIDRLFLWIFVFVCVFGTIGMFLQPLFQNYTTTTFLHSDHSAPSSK

delta (DOP) (h) = target: T7, delta (DOP) (h) (Homo sapiens, UniProt P41143); test: Radioligand binding delta (DOP) (h) (agonist radioligand), [^3H]DALE, Chem-1 RBL; settings: delta (DOP) (h) (agonist radiolig.)
T7 construct: expressed in transfected cells; host or cells: Chem-1 RBL
T7 sequence (P41143 whole entry): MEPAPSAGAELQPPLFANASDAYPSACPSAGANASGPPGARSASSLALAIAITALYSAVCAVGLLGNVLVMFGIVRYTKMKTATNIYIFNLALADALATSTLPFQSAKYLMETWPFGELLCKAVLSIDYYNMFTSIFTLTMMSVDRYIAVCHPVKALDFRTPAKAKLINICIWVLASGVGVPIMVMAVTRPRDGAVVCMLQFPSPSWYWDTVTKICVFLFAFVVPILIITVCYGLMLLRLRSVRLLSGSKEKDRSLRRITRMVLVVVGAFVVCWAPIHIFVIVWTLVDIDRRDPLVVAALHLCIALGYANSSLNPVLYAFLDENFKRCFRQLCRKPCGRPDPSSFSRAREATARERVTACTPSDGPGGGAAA
Method: as §1, §2

5-HT3 (h) = target: T8, 5-HT3 (h) (Homo sapiens, UniProt P46098); test: Radioligand binding 5-HT3 (h) (antagonist radioligand), [^3H]BRL 43694, CHO cells
T8 construct: expressed in transfected cells; host or cells: CHO cells
T8 sequence (P46098 24-478): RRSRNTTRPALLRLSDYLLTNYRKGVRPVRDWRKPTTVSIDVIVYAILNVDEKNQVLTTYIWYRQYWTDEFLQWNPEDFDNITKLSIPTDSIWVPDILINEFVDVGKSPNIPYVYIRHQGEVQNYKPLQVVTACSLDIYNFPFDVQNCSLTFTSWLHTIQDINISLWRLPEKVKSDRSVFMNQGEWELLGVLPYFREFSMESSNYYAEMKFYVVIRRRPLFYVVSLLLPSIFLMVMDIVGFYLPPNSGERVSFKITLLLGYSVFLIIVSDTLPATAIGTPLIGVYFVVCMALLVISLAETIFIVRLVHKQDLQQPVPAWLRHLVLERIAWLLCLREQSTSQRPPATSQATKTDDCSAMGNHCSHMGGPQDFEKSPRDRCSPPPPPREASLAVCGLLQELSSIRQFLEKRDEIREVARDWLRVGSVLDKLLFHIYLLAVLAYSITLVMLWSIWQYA
Method: as §1, §2

T1 sequence (P35367 whole entry): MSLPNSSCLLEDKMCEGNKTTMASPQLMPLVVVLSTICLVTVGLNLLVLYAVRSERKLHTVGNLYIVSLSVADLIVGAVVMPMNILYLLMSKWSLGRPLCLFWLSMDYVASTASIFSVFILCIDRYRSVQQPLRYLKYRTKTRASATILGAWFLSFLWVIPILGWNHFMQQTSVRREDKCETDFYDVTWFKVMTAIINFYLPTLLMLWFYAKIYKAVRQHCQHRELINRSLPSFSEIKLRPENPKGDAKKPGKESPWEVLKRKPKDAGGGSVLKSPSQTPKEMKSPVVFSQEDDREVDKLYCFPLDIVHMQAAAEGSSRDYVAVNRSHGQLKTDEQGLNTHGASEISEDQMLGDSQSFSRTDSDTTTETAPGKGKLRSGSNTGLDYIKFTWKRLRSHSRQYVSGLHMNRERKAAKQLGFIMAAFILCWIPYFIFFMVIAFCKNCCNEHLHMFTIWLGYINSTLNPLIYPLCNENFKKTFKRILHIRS

## COCc1cc(CCN)c(O)cc1CC(C)C [2CiBu-2OH-5MM, 2-(2-aminoethyl)-5-isobutyl-4-(methoxymethyl)phenol]
H1 (h)
  Mean Percent Inhibition of Control Specific Binding: 5.7%
V1a (h)
  Mean Percent Inhibition of Control Specific Binding: 4.8%
Kappa (KOP) (h)
  Mean Percent Inhibition of Control Specific Binding: 28.2%
AR (h)
  Mean Percent Inhibition of Control Specific Binding: −9.9%
[1]
  aqueous solubility relative to reference compound 2C-iBu: significantly higher aqueous solubility
  solubility: 110 mM (≈ 26.2 mg/mL)
KV channel
  Mean Percent Inhibition of Control Specific Binding: 12.7%
[2]
  MEC: 380.8 L/mol/cm
alpha1A (h)
  Mean Percent Inhibition of Control Specific Binding: 51.6%
N neuronal α4β2 (h)
  Mean Percent Inhibition of Control Specific Binding: −10.0%
Delta (DOP) (h)
  Mean Percent Inhibition of Control Specific Binding: 19.5%
5-HT3 (h)
  Mean Percent Inhibition of Control Specific Binding: −3.9%

## COCCc1cc(CCN)c(OC)cc1Br [Compound 2CB-5ME, reference compound]
H1 (h)
  Mean Percent Inhibition of Control Specific Binding: 7.3%
V1a (h)
  Mean Percent Inhibition of Control Specific Binding: 11.2%
Kappa (KOP) (h)
  Mean Percent Inhibition of Control Specific Binding: 11.2%
AR (h)
  Mean Percent Inhibition of Control Specific Binding: −7.7%
KV channel
  Mean Percent Inhibition of Control Specific Binding: −4.3%
alpha1A (h)
  Mean Percent Inhibition of Control Specific Binding: 33.6%
N neuronal α4β2 (h)
  Mean Percent Inhibition of Control Specific Binding: 7.4%
Delta (DOP) (h)
  Mean Percent Inhibition of Control Specific Binding: 9.7%
5-HT3 (h)
  Mean Percent Inhibition of Control Specific Binding: −1.6%

## COCc1cc(CCN)c(OC)cc1Br [Compound 2CB-5MM, 2-(4-bromo-2-methoxy-5-(methoxymethyl)phenyl)ethan-1-amine]
H1 (h)
  Mean Percent Inhibition of Control Specific Binding: 7.3%
V1a (h)
  Mean Percent Inhibition of Control Specific Binding: 5.5%
Kappa (KOP) (h)
  Mean Percent Inhibition of Control Specific Binding: 11.4%
AR (h)
  Mean Percent Inhibition of Control Specific Binding: −9.2%
[1]
  solubility: 43.5 mM (≈ 11.9 mg/mL)
KV channel
  Mean Percent Inhibition of Control Specific Binding: 0.7%
[2]
  MEC: 781.9 L/mol/cm
alpha1A (h)
  Mean Percent Inhibition of Control Specific Binding: 29.4%
N neuronal α4β2 (h)
  Mean Percent Inhibition of Control Specific Binding: −0.1%
Delta (DOP) (h)
  Mean Percent Inhibition of Control Specific Binding: 8.5%
5-HT3 (h)
  Mean Percent Inhibition of Control Specific Binding: 11.6%

## COCc1cc(CCN)c(OC)cc1CC(C)C [Compound 2CiBu-5MM, 2-[4-isobutyl-2-methoxy-5-(methoxymethyl)phenyl]ethanamine]
H1 (h)
  Mean Percent Inhibition of Control Specific Binding: 0.6%
V1a (h)
  Mean Percent Inhibition of Control Specific Binding: 5.3%
Kappa (KOP) (h)
  Mean Percent Inhibition of Control Specific Binding: 29.8%
AR (h)
  Mean Percent Inhibition of Control Specific Binding: 3.0%
[1]
  aqueous solubility relative to reference compound 2C-iBu: significantly higher aqueous solubility
  solubility: 365 mM (≈ 91.7 mg/mL)
[1]; listed as Compound 8
  aqueous solubility relative to reference compound 2C-iBu: over ten times more soluble
KV channel
  Mean Percent Inhibition of Control Specific Binding: −4.2%
[2]
  MEC: 283.6 L/mol/cm
alpha1A (h)
  Mean Percent Inhibition of Control Specific Binding: 7.6%
N neuronal α4β2 (h)
  Mean Percent Inhibition of Control Specific Binding: −2.6%
Delta (DOP) (h)
  Mean Percent Inhibition of Control Specific Binding: 11.9%
5-HT3 (h)
  Mean Percent Inhibition of Control Specific Binding: 2.6%
